From article PMC12366332 (Applied and Environmental Microbiology, 2025)
Where two headings read alike, the source gives them in different places. Square brackets hold non-standard residues; d marks the D form. Ends that are not written are not given here. Peptide text beside a SMILES is read from it. * marks the point of attachment. Hexanoyl = CCCCCC(=O)*; Butyryl = CCCC(=O)*

What was measured:
[1] = tested on: E. coli 0111:B4 LPS; format: biochemical, Escherichia coli
[2] = tested on: tobacco leaves; conditions: 150 µM; after 48 h
[3] = tested on: horse erythrocytes; conditions: red cells of horse, 50 µM
[4] = tested on: X. fastidiosa subsp. fastidiosa IVIA 5387.2

Compound	LPS neutralization Ratio (treatment/NTC) [1]	Phytotoxicity: diameter of the lesion [2]	Hemolytic activity (%) [3]	Bactericidal activity Level ([4]; 50 µM)	Bactericidal activity Reduction in viability (Log N0/N) ([4]; 50 µM)	Bactericidal activity Reduction in viability (Log N0/N) ([4]; 12.5 µM)	Bactericidal activity Reduction in viability (Log N0/N) ([4]; 3.1 µM)	EC50 ([4]; 3 h)
CCCC(=O)NCCCC[C@H](NC(=O)[C@@H](Cc1ccccc1)NC(=O)[C@H](CC(C)C)NC(=O)[C@H](CCCCN)NC(=O)[C@H](CCCCN)NC(C)=O)C(=O)N[C@@H](CCCCN)C(=O)N[C@H](C(=O)N[C@@H](CC(C)C)C(=O)N[C@@H](CCCCN)C(=O)N[C@@H](Cc1ccc(O)cc1)C(=O)N[C@@H](CC(C)C)C(N)=O)[C@@H](C)CC [BP498, Ac-KKLfK(COC3H7)KILKYL-NH2]	0,40	7 mm	9%	Moderate (key: Very High: very high bactericidal activity (>2.5 log); High: high bactericidal activity (between 2.0 and 2.5 log); Moderate: a moderate activity (between 1.5 and 2.0 log); Low: low active (<1.5 log))	1,58 Log N0/N	–	–	–
CCCC(=O)NCCCC[C@H](NC(=O)[C@H](CCCCN)NC(=O)[C@H](CCCCN)NC(C)=O)C(=O)N[C@H](Cc1ccccc1)C(=O)N[C@@H](CCCCN)C(=O)N[C@@H](CCCCN)C(=O)N[C@@H](CCCCN)C(=O)N[C@@H](CC(C)C)C(=O)N[C@@H](CCCCN)C(=O)N[C@@H](Cc1ccc(O)cc1)C(=O)N[C@@H](CC(C)C)C(N)=O [BP546, Ac-KKK(COC3H7)fKKKLKYL-NH2] (Ac-KKK(Butyryl)[dF]KKKLKYL-NH2)	0,73	0 mm	0%	Low (key: Very High: very high bactericidal activity (>2.5 log); High: high bactericidal activity (between 2.0 and 2.5 log); Moderate: a moderate activity (between 1.5 and 2.0 log); Low: low active (<1.5 log))	0,34 Log N0/N	–	–	–
CCCC(=O)NCCCC[C@H](NC(C)=O)C(=O)N[C@@H](CCCCN)C(=O)N[C@@H](CC(C)C)C(=O)N[C@H](Cc1ccccc1)C(=O)N[C@@H](CCCCN)C(=O)N[C@@H](CCCCN)C(=O)N[C@H](C(=O)N[C@@H](CC(C)C)C(=O)N[C@@H](CCCCN)C(=O)N[C@@H](Cc1ccc(O)cc1)C(=O)N[C@@H](CC(C)C)C(N)=O)[C@@H](C)CC [BP545, Ac-K(COC3H7)KLfKKILKYL-NH2]	0,56	4 mm	5%	High (key: Very High: very high bactericidal activity (>2.5 log); High: high bactericidal activity (between 2.0 and 2.5 log); Moderate: a moderate activity (between 1.5 and 2.0 log); Low: low active (<1.5 log))	–	0,54 Log N0/N	–	–
CCCC(=O)NCCCC[C@@H](NC(=O)[C@H](CC(C)C)NC(=O)[C@H](CCCCN)NC(=O)[C@H](CCCCN)NC(C)=O)C(=O)N[C@@H](CCCCN)C(=O)N[C@@H](CCCCN)C(=O)N[C@H](C(=O)N[C@@H](CC(C)C)C(=O)N[C@@H](CCCCN)C(=O)N[C@@H](Cc1ccc(O)cc1)C(=O)N[C@@H](CC(C)C)C(N)=O)[C@@H](C)CC [BP550, Ac-KKLk(COC3H7)KKILKYL-NH2]	1,09	5 mm	3%	Low (key: Very High: very high bactericidal activity (>2.5 log); High: high bactericidal activity (between 2.0 and 2.5 log); Moderate: a moderate activity (between 1.5 and 2.0 log); Low: low active (<1.5 log))	0,00 Log N0/N	–	–	–
CCCC(=O)NCCCC[C@@H](NC(=O)[C@H](CC(C)C)NC(=O)[C@H](CCCCN)NC(=O)[C@H](CCCCN)NC(C)=O)C(=O)N[C@@H](CCCCN)C(=O)N[C@@H](CCCCN)C(=O)N[C@H](C(=O)N[C@@H](CC(C)C)C(=O)N[C@H](C(=O)N[C@@H](Cc1ccc(O)cc1)C(=O)N[C@@H](CC(C)C)C(N)=O)[C@@H](C)CC)[C@@H](C)CC [BP547, Ac-KKLk(COC3H7)KKILIYL-NH2]	0,99	2 mm	0%	Low (key: Very High: very high bactericidal activity (>2.5 log); High: high bactericidal activity (between 2.0 and 2.5 log); Moderate: a moderate activity (between 1.5 and 2.0 log); Low: low active (<1.5 log))	0,05 Log N0/N	–	–	–
CCCC(=O)NCCCC[C@H](NC(=O)[C@H](CC(C)C)NC(=O)[C@@H](NC(=O)[C@H](CCCCN)NC(=O)[C@H](CCCCN)NC(=O)[C@@H](Cc1ccccc1)NC(=O)[C@H](CC(C)C)NC(=O)[C@H](CCCCN)NC(=O)[C@H](CCCCN)NC(C)=O)[C@@H](C)CC)C(=O)N[C@@H](Cc1ccc(O)cc1)C(=O)N[C@@H](CC(C)C)C(N)=O [BP499, Ac-KKLfKKILK(COC3H7)YL-NH2]	0,34	7 mm	2%	High (key: Very High: very high bactericidal activity (>2.5 log); High: high bactericidal activity (between 2.0 and 2.5 log); Moderate: a moderate activity (between 1.5 and 2.0 log); Low: low active (<1.5 log))	–	–	0,63 Log N0/N	–
CCCC(=O)NCCCC[C@H](NC(=O)[C@H](CCCCN)NC(=O)[C@H](CC(C)C)NC(=O)[C@@H](NC(=O)[C@H](CCCCN)NC(=O)[C@H](CCCCN)NC(=O)[C@H](Cc1c[nH]cn1)NC(=O)[C@H](CC(C)C)NC(=O)[C@H](CCCCN)NC(=O)[C@H](CCCCN)NC(C)=O)[C@@H](C)CC)C(=O)N[C@@H](CC(C)C)C(N)=O [BP501, Ac-KKLHKKILKK(COC3H7)L-NH2] (Ac-KKLHKKILKK(Butyryl)L-NH2)	0,71	0 mm	2%	Low (key: Very High: very high bactericidal activity (>2.5 log); High: high bactericidal activity (between 2.0 and 2.5 log); Moderate: a moderate activity (between 1.5 and 2.0 log); Low: low active (<1.5 log))	0,30 Log N0/N	–	–	–
CCCC(=O)NCCCC[C@H](NC(=O)[C@H](CCCCN)NC(=O)[C@H](CCCCN)NC(=O)[C@@H](Cc1ccccc1)NC(=O)[C@H](CC(C)C)NC(=O)[C@H](CCCCN)NC(=O)[C@H](CCCCN)NC(C)=O)C(=O)N[C@@H](CC(C)C)C(=O)N[C@@H](CCCCN)C(=O)N[C@@H](Cc1ccc(O)cc1)C(=O)N[C@@H](CC(C)C)C(N)=O [BP548, Ac-KKLfKKK(COC3H7)LKYL-NH2]	0,65	6 mm	0%	Low (key: Very High: very high bactericidal activity (>2.5 log); High: high bactericidal activity (between 2.0 and 2.5 log); Moderate: a moderate activity (between 1.5 and 2.0 log); Low: low active (<1.5 log))	0,28 Log N0/N	–	–	–
YVKLWRMIKFIR-NH2 [YW12D, YVKLWRMIKFIR-NH2, reference compound]	0,21	1 mm	12%	Low (key: Very High: very high bactericidal activity (>2.5 log); High: high bactericidal activity (between 2.0 and 2.5 log); Moderate: a moderate activity (between 1.5 and 2.0 log); Low: low active (<1.5 log))	0,59 Log N0/N	–	–	–
CCCC(=O)NCCCC[C@H](NC(=O)[C@H](CCCCN)NC(=O)[C@H](CCCCN)NC(C)=O)C(=O)N[C@H](Cc1ccccc1)C(=O)N[C@@H](CCCCN)C(=O)N[C@@H](CCCCN)C(=O)N[C@H](C(=O)N[C@@H](CC(C)C)C(=O)N[C@@H](CCCCN)C(=O)N[C@@H](Cc1ccc(O)cc1)C(=O)N[C@@H](CC(C)C)C(N)=O)[C@@H](C)CC [BP549, Ac-KKK(COC3H7)fKKILKYL-NH2]	1,10	5 mm	1%	Low (key: Very High: very high bactericidal activity (>2.5 log); High: high bactericidal activity (between 2.0 and 2.5 log); Moderate: a moderate activity (between 1.5 and 2.0 log); Low: low active (<1.5 log))	1,19 Log N0/N	–	–	–
CCCCCC(=O)NCCCC[C@H](NC(=O)[C@@H](NC(=O)[C@H](CCCCN)NC(=O)[C@H](CCCCN)NC(=O)[C@H](Cc1ccccc1)NC(=O)[C@H](CC(C)C)NC(=O)[C@H](CCCCN)NC(=O)[C@H](CCCCN)NC(C)=O)[C@@H](C)CC)C(=O)N[C@@H](CCCCN)C(=O)N[C@@H](Cc1ccc(O)cc1)C(=O)N[C@@H](CC(C)C)C(N)=O [BP375, Ac-KKLFKKIK(COC5H11)KYL-NH2] (Ac-KKLFKKIK(Hexanoyl)KYL-NH2)	–	10 mm	23%	–	1,37 Log N0/N	–	–	–
CCCCCCCCCCCC(=O)NCCCC[C@H](NC(=O)[C@@H](NC(=O)[C@H](CCCCN)NC(=O)[C@H](CCCCN)NC(=O)[C@@H](Cc1ccccc1)NC(=O)[C@H](CC(C)C)NC(=O)[C@H](CCCCN)NC(=O)[C@H](CCCCN)NC(C)=O)[C@@H](C)CC)C(=O)N[C@@H](CCCCN)C(=O)N[C@@H](Cc1ccc(O)cc1)C(=O)N[C@@H](CC(C)C)C(N)=O [BP490, Ac-KKLfKKIK(COC11H23)KYL-NH2]	–	6 mm	100%	High (key: Very High: very high bactericidal activity (>2.5 log); High: high bactericidal activity (between 2.0 and 2.5 log); Moderate: a moderate activity (between 1.5 and 2.0 log); Low: low active (<1.5 log))	–	–	1,28 Log N0/N	–
CCCCCC(=O)NCCCC[C@H](NC(=O)[C@H](CCCCN)NC(=O)[C@H](CC(C)C)NC(=O)[C@@H](NC(=O)[C@H](CCCCN)NC(=O)[C@H](CCCCN)NC(=O)[C@H](Cc1ccccc1)NC(=O)[C@H](CC(C)C)NC(=O)[C@H](CCCCN)NC(=O)[C@H](CCCCN)NC(C)=O)[C@@H](C)CC)C(=O)N[C@@H](CC(C)C)C(N)=O [BP377, Ac-KKLFKKILKK(COC5H11)L-NH2] (Ac-KKLFKKILKK(Hexanoyl)L-NH2)	–	11 mm	71%	Very High (key: Very High: very high bactericidal activity (>2.5 log); High: high bactericidal activity (between 2.0 and 2.5 log); Moderate: a moderate activity (between 1.5 and 2.0 log); Low: low active (<1.5 log))	–	1,88 Log N0/N	1,34 Log N0/N	3.67 µM
